Assay [1] concerns the target T1, Tyrosine-protein phosphatase non-receptor type 1 (Homo sapiens, UniProt P18031).
T1 sequence (P18031 whole entry): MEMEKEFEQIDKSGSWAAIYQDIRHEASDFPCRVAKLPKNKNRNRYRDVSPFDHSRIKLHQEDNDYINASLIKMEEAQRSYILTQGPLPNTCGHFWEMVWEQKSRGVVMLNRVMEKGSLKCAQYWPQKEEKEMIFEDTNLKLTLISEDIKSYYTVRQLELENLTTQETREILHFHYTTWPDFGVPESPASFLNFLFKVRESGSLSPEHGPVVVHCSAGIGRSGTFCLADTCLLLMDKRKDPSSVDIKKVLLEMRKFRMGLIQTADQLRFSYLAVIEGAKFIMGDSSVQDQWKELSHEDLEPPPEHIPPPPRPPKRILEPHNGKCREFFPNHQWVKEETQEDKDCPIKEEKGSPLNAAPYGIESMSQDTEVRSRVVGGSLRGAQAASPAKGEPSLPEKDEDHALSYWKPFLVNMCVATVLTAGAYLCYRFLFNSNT
Nature of the assay: Inhibitory concentration against human PTP1B expressed in Escherichia coli BL21 cells.

The target in assay [2] is Secreted effector protein (Yersinia pestis, UniProt O68720). Nature of the assay: Inhibitory concentration against Yersinia pestis YopH expressed in Escherichia coli BL21 cells.
Sequence of Secreted effector protein (O68720 whole entry): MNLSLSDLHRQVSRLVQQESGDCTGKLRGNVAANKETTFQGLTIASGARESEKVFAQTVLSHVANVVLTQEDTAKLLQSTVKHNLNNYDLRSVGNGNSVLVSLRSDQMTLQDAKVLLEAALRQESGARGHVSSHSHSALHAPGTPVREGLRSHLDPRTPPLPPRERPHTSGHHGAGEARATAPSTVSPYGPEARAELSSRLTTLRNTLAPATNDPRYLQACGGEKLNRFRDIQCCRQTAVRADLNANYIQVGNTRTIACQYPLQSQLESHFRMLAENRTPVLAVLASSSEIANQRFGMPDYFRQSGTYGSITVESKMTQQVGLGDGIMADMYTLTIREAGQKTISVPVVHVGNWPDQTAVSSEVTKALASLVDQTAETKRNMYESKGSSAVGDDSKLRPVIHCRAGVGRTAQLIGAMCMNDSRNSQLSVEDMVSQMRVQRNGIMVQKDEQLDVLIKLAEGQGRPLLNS

Take `CC(C)C[C@H](CC(=O)[C@H](Cc1ccc(OCC(=O)O)cc1)NC(=O)[C@H](CNC(=O)OCc1ccccc1)NC(=O)OCC1c2ccccc2-c2ccccc21)C(N)=O`: the values for the IC50 in assay [1] and in assay [2] were 4.3 µM and 2.1 µM, respectively.
The like results for `CC(C)C[C@H](CC(=O)[C@H](Cc1ccc(OCC(=O)O)cc1)NC(=O)[C@H](CCC(=O)OCc1ccccc1)NS(=O)(=O)CCc1cccc2ccccc12)C(N)=O` were, in that order, 24 µM and 22 µM.
As to `Cc1ccc2c(c1)CCN2CCC(=O)N[C@@H](CCC(=O)OCc1ccccc1)C(=O)N[C@@H](Cc1ccc(OCC(=O)O)cc1)C(=O)C[C@@H](CC(C)C)C(N)=O`, the IC50 in assay [1] stood at 4.3 µM; in assay [2] it was 5.6 µM.
On the same counts, the results for `CC(C)C[C@H](NC(=O)[C@H](Cc1ccc(OCC(=O)O)cc1)NC(=O)C(CNC(=O)OCc1ccccc1)CNC(=O)OCc1ccccc1)C(N)=O` are 2.8 µM and 4 µM.
On the same counts, the results for `CC(C)C[C@H](CC(=O)[C@H](Cc1ccc(OCC(=O)O)cc1)NC(=O)[C@H](CCC(=O)OCc1ccccc1)NC(=O)COc1ccc2ccccc2c1)C(N)=O` are 23 µM and 30 µM.
The like results for `CC(C)C[C@H](CC(=O)[C@H](Cc1ccc(C(F)(F)C(=O)O)cc1)NC(=O)[C@H](CCC(=O)OCc1ccccc1)NC(=O)OCC1c2ccccc2-c2ccccc21)C(N)=O` were, in that order, 3.1 µM and 2.5 µM.
Regarding `CC(C)C[C@H](CC(=O)[C@H](Cc1ccc(OCC(=O)O)cc1)NC(=O)[C@H](CCC(=O)OCc1ccccc1)NC(=O)OCC1c2ccccc2-c2ccccc21)C(N)=O`, the IC50 in assay [1] is 2.9 µM; in assay [2], 1.8 µM.
In the case of `CC(C)C[C@H](CC(=O)[C@H](Cc1ccc(OC(F)(F)C(=O)O)cc1)NC(=O)[C@H](CCC(=O)OCc1ccccc1)NC(=O)OCC1c2ccccc2-c2ccccc21)C(N)=O`, the IC50 in assay [1] came to 3.8 µM; in assay [2], 1.9 µM.
In the case of `CC(C)C[C@H](CC(=O)[C@H](Cc1ccc(OCC(=O)O)cc1)NC(=O)[C@H](CCC(=O)OCc1ccccc1)NC(=O)CCc1c2ccccc2cc2ccccc12)C(N)=O`, the IC50 in assay [1] was 6.4 µM; in assay [2], 12 µM.
On the same counts, the results for `CC(C)C[C@H](CC(=O)[C@H](Cc1ccc(OCC(=O)O)cc1)NC(=O)[C@H](CCC(=O)OCc1ccccc1)NC(=O)COc1cccc2ccccc12)C(N)=O` are 13 µM and 20 µM.
Turning to `COc1ccc(Cn2nnc(CC(=O)N[C@@H](CCC(=O)OCc3ccccc3)C(=O)N[C@@H](Cc3ccc(OCC(=O)O)cc3)C(=O)C[C@@H](CC(C)C)C(N)=O)n2)cc1`, the IC50 in assay [1] and in assay [2] was above 100 µM throughout.
With `CC(C)C[C@H](CC(=O)[C@H](Cc1ccc(OCC(=O)O)cc1)NC(=O)[C@H](CCC(=O)OCc1ccccc1)NC(=O)CCc1cccc2ccccc12)C(N)=O`, the IC50 in assay [1] came out at 12 µM; in assay [2], 18 µM.
Take `Cc1cn(CC(=O)N[C@@H](CCC(=O)OCc2ccccc2)C(=O)N[C@@H](Cc2ccc(OCC(=O)O)cc2)C(=O)C[C@@H](CC(C)C)C(N)=O)c(=O)[nH]c1=O`: the IC50 in assay [1] and in assay [2] was above 100 µM in each case.
Turning to `CC(C)C[C@H](CC(=O)[C@H](Cc1ccc(CC(=O)O)cc1)NC(=O)[C@H](CCC(=O)OCc1ccccc1)NC(=O)OCC1c2ccccc2-c2ccccc21)C(N)=O`, the IC50 in assay [1] worked out at 4.6 µM; in assay [2] it was 2.4 µM.
As for `CC(C)C[C@H](CC(=O)[C@H](Cc1ccc(OCC(=O)O)cc1)NC(=O)[C@H](CCC(=O)OCc1ccccc1)NC(=O)CCc1c[nH]c2ccccc12)C(N)=O`, the IC50 in assay [1] and in assay [2] was above 100 µM each time.
With `CC(C)C[C@H](CC(=O)[C@H](Cc1ccc(OCC(=O)O)cc1)NC(=O)[C@H](CCC(=O)OCc1ccccc1)NC(=O)CCCc1c[nH]c2ccccc12)C(N)=O`, the IC50 in assay [1] and in assay [2] was above 100 µM in each case.
